# Where two headings read alike, the source gives them in different places.
# Molecular target: biotinylated Avi-POLθ[2-894] (Homo sapiens (Human), UniProt O75417)
# Assay: POLθ ATPase assay (ADP-Glo)
# Conditions: n=2, read-out: Biochemical ATPase ADPGlo IC50
# Chain of biotinylated Avi-POLθ[2-894] (O75417 2-894): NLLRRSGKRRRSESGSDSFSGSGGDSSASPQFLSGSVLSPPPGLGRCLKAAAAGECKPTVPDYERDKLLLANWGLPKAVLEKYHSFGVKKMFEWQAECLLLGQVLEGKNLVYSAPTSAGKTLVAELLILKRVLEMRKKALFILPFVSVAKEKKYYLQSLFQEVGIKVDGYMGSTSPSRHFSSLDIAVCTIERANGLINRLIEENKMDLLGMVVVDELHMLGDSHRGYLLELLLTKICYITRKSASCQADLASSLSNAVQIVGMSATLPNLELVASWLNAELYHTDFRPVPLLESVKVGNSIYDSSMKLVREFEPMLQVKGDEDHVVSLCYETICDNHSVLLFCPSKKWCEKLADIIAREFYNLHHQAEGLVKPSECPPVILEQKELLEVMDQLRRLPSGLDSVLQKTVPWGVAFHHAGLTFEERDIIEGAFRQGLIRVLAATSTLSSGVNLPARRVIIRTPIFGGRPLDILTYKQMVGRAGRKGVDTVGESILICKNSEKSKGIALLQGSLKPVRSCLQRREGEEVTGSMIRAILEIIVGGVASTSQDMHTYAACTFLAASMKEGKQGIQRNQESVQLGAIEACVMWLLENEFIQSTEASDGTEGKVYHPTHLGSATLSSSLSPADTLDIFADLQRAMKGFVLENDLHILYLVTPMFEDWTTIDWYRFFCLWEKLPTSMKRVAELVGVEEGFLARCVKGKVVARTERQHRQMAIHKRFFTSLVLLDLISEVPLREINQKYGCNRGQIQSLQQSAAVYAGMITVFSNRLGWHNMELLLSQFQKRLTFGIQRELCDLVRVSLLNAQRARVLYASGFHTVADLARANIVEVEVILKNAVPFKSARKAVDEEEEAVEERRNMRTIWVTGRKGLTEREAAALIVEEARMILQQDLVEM
SMILES,IC50,"IC50 (POLθ ATPase, ADP-Glo)"
"COc1cnc(Cl)cc1-c1cc(C)ncc1C(=O)Nc1nc2c(s1)CN(C(=O)c1ccnn1CC(F)F)C2 [Example 143, 2′-chloro-N-(5-(1-(2,2-difluoroethyl)-1H-pyrazole-5-carbonyl)-5,6-dihydro-4H-pyrrolo[3,4-d]thiazol-2-yl)-5′-methoxy-6-methyl-[4,4′-bipyridine]-3-carboxamide]",1 to 15 nM,
COc1cnc(Cl)cc1-c1cc(C)ncc1C(=O)Nc1nc2c(s1)C[C@H](C(=O)N[C@H]1CC[C@@H]1O)CC2,,150 to 900 nM
COc1ccccc1-c1cc(C)ncc1C(=O)Nc1nc2c(s1)CN(C(=O)c1nc3ccccn3n1)C2 [Example 252],50 to 150 nM,
COc1cnc(C(=O)N2Cc3nc(NC(=O)c4cnc(C)cc4-c4cc(Cl)ncc4OC)sc3C2)nc1,,1 to 15 nM
COc1ccc(C#N)cc1-c1cc(C)ncc1C(=O)Nc1nc2c(s1)CN(C(=O)C1CCOCC1)CC2,150 to 900 nM,
COc1ccc(C#N)cc1-c1cc(C)ncc1C(=O)Nc1nc2c(s1)CN(C(=O)[C@H]1C[C@H](OC)C1)C2 [Example 221],15 to 50 nM,
COc1ccc(C#N)cc1-c1cc(C)ncc1C(=O)Nc1nc2c(s1)CN(C1CC1)C2 (racemic) [Example 165],50 to 150 nM,
COc1ccc(C#N)cc1-c1cc(C)ncc1C(=O)Nc1nc2c(s1)CN(C(=O)c1ccccn1)CC2 [Example 247],150 to 900 nM,
"COc1nc(C(=O)N2Cc3nc(NC(=O)c4cnc(C)cc4-c4cc(Cl)cnc4O)sc3C2)c(C)cc1C(F)(F)F [Example 1043, 5-chloro-2-hydroxy-N-(5-(6-methoxy-3-methyl-5-(trifluoromethyl)picolinoyl)-5,6-dihydro-4H-pyrrolo[3,4-d]thiazol-2-yl)-6′-methyl-[3,4′-bipyridine]-3′-carboxamide]",,≥ 900 nM
COc1cnc(Cl)cc1-c1cc(C)ncc1C(=O)Nc1nc2c(s1)CN(C(=O)c1cn(C)nc1C)C2 (racemic),1 to 15 nM,
"COc1ccccc1-c1cc(C)ncc1C(=O)Nc1nc2c(s1)CN(C1CC1)C2=O [Example 352, N-(5-cyclopropyl-4-oxo-5,6-dihydro-4H-pyrrolo[3,4-d]thiazol-2-yl)-4-(2-methoxyphenyl)-6-methylnicotinamide]",≥ 900 nM,
COc1ccc(C#N)cc1-c1cc(C)ncc1C(=O)Nc1nc2c(s1)CN(S(=O)(=O)C1CCCC1)CC2,150 to 900 nM,
"COc1nc(C(F)(F)F)ccc1C(=O)N1Cc2nc(NC(=O)c3cnc(C)cc3-c3cc(Cl)c[nH]c3=O)sc2C1 [Example 1045, 5-chloro-N-(5-(2-methoxy-6-(trifluoromethyl)nicotinoyl)-5,6-dihydro-4H-pyrrolo[3,4-d]thiazol-2-yl)-6′-methyl-2-oxo-1,2-dihydro-[3,4′-bipyridine]-3′-carboxamide]",,≥ 900 nM
COc1ccccc1-c1cc(C)ncc1C(=O)Nc1nc2c(s1)CN(C(=O)c1ccnn1C)C2,50 to 150 nM,
COc1ccccc1-c1cc(C)ncc1C(=O)Nc1nc2c(s1)CN(C(=O)C1CCCCC1)CC2,≥ 900 nM,
"COc1cnc(Cl)cc1-c1cc(C)ncc1C(=O)Nc1nc2c(s1)CN(C(=O)[C@H]1C[C@](F)(CO)C1)C2 [Example 105, 2′-chloro-N-(5-((1s,3s)-3-fluoro-3-(hydroxymethyl)cyclobutane-1-carbonyl)-5,6-dihydro-4H-pyrrolo[3,4-d]thiazol-2-yl)-5′-methoxy-6-methyl-[4,4′-bipyridine]-3-carboxamide]",15 to 50 nM,
COc1ccccc1-c1cc(C)ncc1C(=O)Nc1nc2c(s1)CN(C(=O)C1CC(=O)N1)C2 (racemic),150 to 900 nM,
COc1cnc(Cl)cc1-c1cc(C)ncc1C(=O)Nc1nc2c(s1)CN(C(=O)C1CN(CC(F)(F)F)C1)C2 [Example 120],15 to 50 nM,
COc1ccccc1-c1cc(C)ncc1C(=O)Nc1nc2c(s1)CN(C(=O)c1cnco1)C2,150 to 900 nM,
COc1ccccc1-c1cc(C)ncc1C(=O)Nc1nc2c(s1)CN(S(=O)(=O)N1CCCC1)C2,50 to 150 nM,
COc1ccccc1-c1cc(C)ncc1C(=O)Nc1nc2c(s1)CC(=O)CC2 [Example 373],≥ 900 nM,
COc1cnc(Cl)cc1-c1cc(C)ncc1C(=O)Nc1nc2c(s1)C[C@@H](C(=O)N[C@H]1CC[C@H]1O)CC2,,150 to 900 nM
"COc1cnc(Cl)cc1-c1cc(C)ncc1C(=O)Nc1nc2c(s1)C[C@@H](C(=O)NC1CCC1)CC2 (single isomer, unassigned) [Example 29, (S or R)-2-(2′-chloro-5′-methoxy-6-methyl-[4,4′-bipyridine]-3-carboxamido)-N-cyclobutyl-4,5,6,7-tetrahydrobenzo[d]thiazole-6-carboxamide]",150 to 900 nM,
COc1ccccc1-c1cc(C)ncc1C(=O)Nc1nc2c(s1)CCCC2,≥ 900 nM,
"COc1cnc(Cl)cc1-c1cc(C)ncc1C(=O)Nc1nc2c(s1)CN(C(=O)[C@@H]1CC[C@](O)(C(F)(F)F)C1)C2 [Example 734, 2′-chloro-N-(5-((1R,3R)-3-hydroxy-3-(trifluoromethyl)cyclopentane-1-carbonyl)-5,6-dihydro-4H-pyrrolo[3,4-d]thiazol-2-yl)-5′-methoxy-6-methyl-[4,4′-bipyridine]-3-carboxamide]",,1 to 15 nM
COc1ccccc1-c1cc(C)ncc1C(=O)Nc1nc2c(s1)CN(C(=O)c1cncnc1)C2,150 to 900 nM,
COc1ccc(C#N)cc1-c1cc(C)ncc1C(=O)Nc1nc2c(s1)CN(S(=O)(=O)C1CCOC1)C2 (stereo not shown),15 to 50 nM,
COc1cnc(Cl)cc1-c1cc(C)ncc1C(=O)Nc1nc2c(s1)CN(C(=O)C1CCC(O)(C(F)(F)F)CC1)C2 (stereo not shown) [Example 112],1 to 15 nM,

SMILES,IC50,"IC50 (POLθ ATPase, ADP-Glo)"
"COc1cnc(Cl)cc1-c1cc(C)ncc1C(=O)Nc1nc2c(s1)CN(C(=O)[C@@H]1C[C@H]1CO)C2 [Example 102, 2′-chloro-N-(5-((1R,2R)-2-(hydroxymethyl)cyclopropane-1-carbonyl)-5,6-dihydro-4H-pyrrolo[3,4-d]thiazol-2-yl)-5′-methoxy-6-methyl-[4,4′-bipyridine]-3-carboxamide]",1 to 15 nM,
COc1ccccc1-c1cc(C)ncc1C(=O)Nc1nc2c(s1)CN(C(=O)C1CCC1)C2,50 to 150 nM,
COc1cnc(Cl)cc1-c1cc(C)ncc1C(=O)Nc1nc2c(s1)CN(C(=O)[C@@H]1CCC[C@](O)(C(F)(F)F)C1)C2 [Example 761],,1 to 15 nM
COc1ccc(C#N)cc1-c1cc(C)ncc1C(=O)Nc1nc2c(s1)CN(S(=O)(=O)C1CCCOC1)C2 (racemic) [Example 233],15 to 50 nM,
COc1ccccc1-c1cc(C)ncc1C(=O)Nc1nc2c(s1)CN(C(=O)c1ncccc1C#N)C2,50 to 150 nM,
"COc1cnc(Cl)cc1-c1cc(C)ncc1C(=O)Nc1nc2c(s1)CN(C(=O)c1cncn1C)C2 [Example 30, 2′-chloro-5′-methoxy-6-methyl-N-(5-(1-methyl-1H-imidazole-5-carbonyl)-5,6-dihydro-4H-pyrrolo[3,4-d]thiazol-2-yl)-[4,4′-bipyridine]-3-carboxamide]",15 to 50 nM,
COc1cnc(Cl)cc1-c1cc(C)ncc1C(=O)Nc1nc2c(s1)CN(C(=O)c1cnn(CC(F)F)c1)C2,1 to 15 nM,
COc1ccccc1-c1cc(C)ncc1C(=O)Nc1nc2c(s1)CC(c1ccc(Cl)cc1)=CC2 [Example 328],150 to 900 nM,
COc1ccccc1-c1cc(C)ncc1C(=O)Nc1nc2c(s1)CN(C(=O)CN1CCCC1=O)C2,≥ 900 nM,
"COc1cnc(Cl)cc1-c1cc(C)ncc1C(=O)Nc1nc2c(s1)CN(C(=O)c1cnn(CC(F)(F)F)c1)C2 [Example 83, 2′-chloro-5′-methoxy-6-methyl-N-(5-(1-(2,2,2-trifluoroethyl)-1H-pyrazole-4-carbonyl)-5,6-dihydro-4H-pyrrolo[3,4-d]thiazol-2-yl)-[4,4′-bipyridine]-3-carboxamide]",15 to 50 nM,
COc1ccccc1-c1cc(C)ncc1C(=O)Nc1nc2c(s1)CN(S(=O)(=O)C1CCC1)C2,15 to 50 nM,
"COc1cnc(Cl)cc1-c1cc(C)ncc1C(=O)Nc1nc2c(s1)CN(C(=O)c1nccn1C)C2 [Example 23, 2′-chloro-5′-methoxy-6-methyl-N-(5-(1-methyl-1H-imidazole-2-carbonyl)-5,6-dihydro-4H-pyrrolo[3,4-d]thiazol-2-yl)-[4,4′-bipyridine]-3-carboxamide]",15 to 50 nM,
COc1ccc(C#N)cc1-c1cc(C)ncc1C(=O)Nc1nc2c(s1)CN(C(=O)C1CCC1)C2,1 to 15 nM,
COc1ccccc1-c1cc(C)ncc1C(=O)Nc1nc2c(s1)CN(C(=O)c1ncon1)C2,50 to 150 nM,
COc1ccc(C#N)cc1-c1cc(C)ncc1C(=O)Nc1nc2c(s1)CN(C(=O)[C@@H]1CCCOC1)CC2 [Example 223],150 to 900 nM,
COc1ccccc1-c1cc(C)ncc1C(=O)Nc1nc2c(s1)CN(S(=O)(=O)N(C)C)C2,150 to 900 nM,
COc1cnc(Cl)cc1-c1cc(C)ncc1C(=O)Nc1nc2c(s1)CN(C(=O)[C@H]1C[C@@](C)(O)C1)C2 [Example 193],1 to 15 nM,
COc1ccccc1-c1cc(C)ncc1C(=O)Nc1nc2c(s1)CN(C(=O)C1(O)COC1)C2,150 to 900 nM,
COc1ccccc1-c1cc(C)ncc1C(=O)Nc1nc2c(s1)CN(C(=O)C1CCCOC1)C2 (racemic),150 to 900 nM,
COc1cnc(Cl)cc1-c1cc(C)ncc1C(=O)Nc1nc2c(s1)C[C@H](C(=O)N[C@H]1CC[C@H]1O)CC2,,150 to 900 nM
COc1ccccc1-c1cc(C)ncc1C(=O)Nc1nc2c(s1)CN(C(=O)c1ccccn1)C2 [Example 323],150 to 900 nM,
COc1cnc(Cl)cc1-c1cc(C)ncc1C(=O)Nc1nc2c(s1)CN(C(=O)C1CC3(COC3)C1)C2 [Example 192],1 to 15 nM,
COc1ccccc1-c1cc(C)ncc1C(=O)Nc1nc2c(s1)CN(C(=O)C1CCC(=O)N1)C2 (stereo not shown),150 to 900 nM,
COc1ccccc1-c1cc(C)ncc1C(=O)Nc1nc2c(s1)CN(C(=O)C1CCCO1)C2 (racemic),150 to 900 nM,
COc1cnc(Cl)cc1-c1cc(C)ncc1C(=O)Nc1nc2c(s1)CC(NC1CCC1)CC2 (racemic) [Example 134],150 to 900 nM,
"COc1ccc(C#N)cc1-c1cc(C)ncc1C(=O)Nc1nc2c(s1)CN(C(=O)C1CC1OC)CC2 (mixture of isomers) [Example 214, 4-(5-cyano-2-methoxyphenyl)-N-(5-(2-methoxycyclopropane-1-carbonyl)-4,5,6,7-tetrahydrothiazolo[5,4-c]pyridin-2-yl)-6-methylnicotinamide Mixture of isomers]",150 to 900 nM,
COc1cnc(Cl)cc1-c1cc(C)ncc1C(=O)Nc1nc2c(s1)CN(C(=O)c1nccs1)C2,,1 to 15 nM

# Reference: patent US20250230171A1 (MOMA Therapeutics, Inc., priority 2023, published 2025)
